Reference: article PMC9929129, “Towards Translation of PqsR Inverse Agonists: From In Vitro Efficacy Optimization to In Vivo Proof‐of‐Principle” (Advanced Science, 2023)
Values joined by “and” are separate entries in the source; they are usually repeats but may differ in a detail not shown here. Equal values may be shown once.

What was measured:
[1] = Apparent permeability in Calu-3 cell line; assay type: in vitro ADME; settings: human; air–liquid interface
[2] = system: Ca2+ channel (L, dihydropyridine site); assay: Cerep panel binding assay; design: species or system rat; settings: 10 µM, antagonist radioligand
Method: 1.4 Safety Pharmacology of Compound 24
1.4.1 Cerep panel (Eurofins)
Compound 24 was further profiled for its off-target interactions against a panel of 44 targets. The
screening was done by Eurofins Pharma Discovery within the SafetyScreen44 Panel (Cerep, ITEM
P270). In all assays binding/functional inhibition was determined at 10 µM.
Table S6. List of binding assays within the CEREP44 off-target panel and binding data for compound

PA14 biofilm = assay: Biofilm-formation assay (Calgary biofilm device); assay type: cell-based, Pseudomonas aeruginosa; settings: 24 present from the beginning or added 8 h after onset of biofilm growth; CFU after 48 h
Method: MA, USA) instrument parameters: Spray voltage 3500 V, vaporizer temperature 370 °C, sheath gas pressure 35 psi, aux gas pressure 30 psi, capillary temperature 270 °C, collision pressure 1.5 mTorr, positive ionization mode. For AQ analyte reaction monitoring parameters please see Table S1.
Table S1. LC-ESI-MS/MS reaction monitoring parameters of AQ analytes in positive ionization mode. precursor product ion collision tube lens retention ion m/z m/z energy (V) offset (V) time (min)
1.2.4 Biofilm-formation assay
Biofilm formation was determined using a MBEC Assay® Biofilm Inoculator with 96-well base (Innvotech, Edmonton, CA). An overnight culture of PA14 was centrifuged (10 min, 5000 x g). The supernatant including extracellular polymers was removed and the pellet washed with 10 mL of LB medium. Centrifugation was repeated, the supernatant discarded, and the pellet resuspended in 5 mL of LB. OD was adjusted to 0.2. The bacteria were further diluted in LB medium, followed by addition of the target compound or DMSO control to give OD 0.1 and 1% DMSO. 150 µL were added to each well of the 96-well plate. The outer wells were used as blanks containing 150 µL of 1% DMSO in LB. Six replicates per sample were distributed evenly across the plate, with every row containing one replicate of each sample. […]
Statistical outliers were determined using the Nalimov test, applying a 95% cut-off. […]

CC(C)Oc1ccc(-c2ncc(CNc3ccnc(C(F)(F)F)c3)cn2)cc1Cl [Compound 24]
Papp at 4 h [1]: 3.1 ± 0.28 ×10⁻⁶ cm/s
BINDING (%) [2]: 75.3% and > 50%
PA14 biofilm formation (CFU) compared to DMSO control (PA14 biofilm): significantly attenuates
